Assay results reported in patent publication US8211877B2, “Compounds, compositions and methods for preventing neurodegeneration in acute and chronic injuries in the central nervous system” (Neurotech Pharmaceuticals Co., Ltd., priority 2000, dated 2012).

What was measured:
[1] = tested on: Mouse cortical cell cultures; test: Fe2+-induced free radical neurotoxicity in cortical cell cultures (LDH release); type: cell-based; conditions: for Protection against free radical neurotoxicity compared with parent compound: comparison with BAS or NBAS
Protocol: (§1) Primary cortical cell cultures from embryonic mice were prepared and used to examine neuroprotective action of compounds. Mouse cortical cell culture system has been extensively used to study mechanisms and pharmacological intervention of neuronal death in neurological diseases. In brief, mouse cerebral cortices were removed from brains of the 15 day-old-fetal mice, in accordance with a protocol approved by our institutional animal care committee. The neocortices were gently triturated and plated on 24 well plates (5 hemispheres/plate) precoated with 100 μg/ml poly-D-lysine and 4 μg/ml laminin. Plating media consist of Eagles minimal essential media (MEM, Earles salts, supplied glutamine-free) supplemented with 5% horse serum, 5% fetal bovine serum, 2 mM glutamine, and 21 mM glucose. Cultures were maintained at 37° C. in a humidified 5% CO2 atmosphere. After 7 days in vitro (DIV 7), cultures were shifted into a growth medium identical to the plating medium but lacking fetal serum. At DIV 7-9, 10 mM cytosine arabinofuranoside was included to halt overgrowth of glia. Mixed cultures of neurons and glia were then fed twice a week.
(§2) The percent neuronal death was normalized to the mean LDH value released 24 hr after continuous exposure 500 μM NMDA (=100) or a sham control (=0).
(§3) The neuroprotective action of 5-amino salicylic acid (AS) was examined in primary cortical cell cultures. Mouse cortical cell cultures (DIV 12-14) were exposed to 300μ M NMDA for 10 min (1a), continuously to 50μ M Fe^2+ (1b), or 300μ M Zn^2+ for 30 min (1c), alone or with inclusion of 10-300μ M 5-amino salicylic acid (AS). Neuronal death was analyzed 24 hr later by measuring levels of LDH released into the bathing medium, mean±SEM (n=9-12 (1a), n=4-8 (1b) or n=4 (1c) culture wells per condition), scaled to mean LDH efflux value 24 hr after sham wash (=0) and continuous exposure to 500μ M NMDA (=100).
(§4) Neuronal death was analyzed 24 hr later by measuring levels of LDH released into the medium, meant SEM (n=7-8 (2a), n=3-6 (2b), n=4 (2c), or n=4 (2d) culture wells per condition). FIG. 2. indicates significant difference from relevant control, at p<0.05 using ANOVA and Student-Neuman-Keuls test.
(§5) 5-(pentafluorobenzyl)amino salicylic acid (PBAS) was synthesized and tested against neuronal injuries. Mouse cortical cell cultures (DIV 12-14) were exposed to 300μ M NMDA for 10 min (8a), continuously to 50μ M Fe^2+ (8b) or 10 mM BSO (8c), or 300μ M Zn^2+ for 30 min (8d), alone or with inclusion of indicated doses of 5-(pentafluorobenzyl)amino salicylic acid (PBAS). Neuronal death was analyzed 24 hr later by measuring levels of LDH released into the medium, mean t SEM (n=11-16 (8a), n=3-6 (8b), n=4-11 (8c), or n=12 (8d) culture wells per condition).
(§6) Mouse cortical cell cultures (DIV 12-14) were exposed to 300μ M NMDA for 10 min (11a) or continuously to 50μ M Fe^2− (11b), alone or with inclusion of indicated doses of 5-(4-nitrobenzyl)-N-acetylamino-2-acetoxy ethylbenzoate (NNAAE). Neuronal death was analyzed 24 hr later by measuring levels of LDH released into the medium, mean±SEM (n=10-12 (11a), n=7-8 (11b), or n=4 (11c) culture wells per condition).
(§7) Mouse cortical cell cultures (DIV 12-14) were exposed to 300μ M NMDA for 10 min (15a) or continuously to 50μ M Fe^2− (15b), alone or with inclusion of indicated doses of 5-[3-(4-nitrophenyl)-n-propyl]aminosalicylic acid (NPPAA). Neuronal death was analyzed 24 hr later by measuring levels of LDH released into the medium, mean±SEM (n=4 (15a) or n=3-8 (15b) culture wells per condition).

[2] = Anti-oxidant effect: decrease in DPPH absorption at 517 nm; type: biochemical; conditions: for A517 nm (DPPH): 100 uM DPPH in ethanol, 30 min, mean±SEM
Protocol: To examine anti-oxidant effect, DPPH (2,2-diphenyl-1-picryl-hydrazyl radical), a stable free radical, was dissolved in ethanol to make a 100μ M solution. A compound was reacted with DPPH or ethanol. After incubation for 30 min, relative decrease in DPPH absorption at 517 nm was measured by a spectrophotometer.
AS or trolox was reacted with 100 uM DPPH dissolved in ethanol for 30 min. Anti-oxidant property was analyzed by measuring changes in the level of DPPH at 517 nm, mean±SEM (n=3 test tubes per condition), after subtracting background value resulting from ethanol alone.
Anti-oxidant property was analyzed by measuring changes in DPPH at 517 nm, mean±SEM (n=3 test tubes per condition), after subtracting background value resulting from ethanol alone.
NBAS was reacted with 100 uM DPPH dissolved in ethanol for 30 min. Anti-oxidant property was analyzed by measuring changes in DPPH at 517 nm, mean±SEM (n=3 test tubes per condition), after subtracting background value resulting from ethanol alone.
PBAS was reacted with 100 uM DPPH dissolved in ethanol for 30 min. Anti-oxidant property was analyzed by measuring changes in DPPH at 517 nm, mean±SEM (n=3 test tubes per condition), after subtracting background value resulting from ethanol alone.
NBAS derivatives (100μ M for each) were reacted with 100 μM DPPH dissolved in ethanol for 30 min. Anti-oxidant property was analyzed by measuring changes in DPPH at 517 nm, meant SEM (n=3 test tubes per condition), after subtracting background value resulting from ethanol alone.

[3] = tested on: Mouse cortical cell cultures; test: NMDA-induced neuronal death in cortical cell cultures (LDH release); type: cell-based; conditions: 300 μM NMDA 10 min
Protocol: as §1, §2, §3, §4, §5, §6, §7

[4] = tested on: Mouse cortical cell cultures; test: Zn2+ neurotoxicity in cortical cell cultures (LDH release); type: cell-based; conditions: 300 μM Zn2+ 30 min
Protocol: as §1, with “Cultures were maintained at 37° C. in a humidified 5% CO2 atmosphere. After 7 days in vitro (DIV 7), cultures were shifted into a growth medium identical to the plating medium but lacking fetal serum. At DIV 7-9, 10 mM cytosine arabinofuranoside was included to halt overgrowth of glia. Mixed cultures of neurons and glia were then fed twice a week.” left out
The neuroprotective action of 5-amino salicylic acid (AS) was examined in primary cortical cell cultures. […] Neuronal death was analyzed 24 hr later by measuring levels of LDH released into the bathing medium, mean±SEM (n=9-12 (1a), n=4-8 (1b) or n=4 (1c) culture wells per condition), scaled to mean LDH efflux value 24 hr after sham wash (=0) and continuous exposure to 500μ M NMDA (=100).
(§8) Neuronal death was analyzed 24 hr later by measuring levels of LDH released into the medium, meant SEM (n=7-8 (2a), n=3-6 (2b), n=4 (2c), or n=4 (2d) culture wells per condition). […]

[5] = tested on: Mouse cortical cell cultures; test: BSO-induced free radical neurotoxicity in cortical cell cultures (LDH release); type: cell-based; conditions: 10 mM BSO continuously; compound 1 μM
Protocol: as §1, with “After 7 days in vitro (DIV 7), cultures were shifted into a growth medium identical to the plating medium but lacking fetal serum. At DIV 7-9, 10 mM cytosine arabinofuranoside was included to halt overgrowth of glia. Mixed cultures of neurons and glia were then fed twice a week.” left out
as §8
5-(pentafluorobenzyl)amino salicylic acid (PBAS) was synthesized and tested against neuronal injuries. […] Neuronal death was analyzed 24 hr later by measuring levels of LDH released into the medium, mean t SEM (n=11-16 (8a), n=3-6 (8b), n=4-11 (8c), or n=12 (8d) culture wells per condition).

[6] = 50 μM Fe2+ continuously, compound 10 μM
[7] = 50 μM Fe2+ continuously, compound 1 μM

## CCOC(=O)c1cc(N(Cc2ccc([N+](=O)[O-])cc2)C(C)=O)ccc1O [NNAHE, 5-(4-nitrobenzyl)-N-acetylamino-2-hydroxy ethylbenzoate]
[1]; [6]
  Effect on Fe2+-induced neuronal death, in words: blocked

## O=C(O)c1cc(NCc2ccc([N+](=O)[O-])cc2)ccc1O [NBAS, 5-(4-nitrobenzyl)aminosalicylic acid]
[2]; compound 10 μM
  A517 nm (DPPH): 0.37 ± 0.1
[2]; compound 30 μM
  A517 nm (DPPH): 0.04 ± 0.01
[2]; compound 100 μM
  A517 nm (DPPH): 0.04 ± 0.00
[2]; compound 300 μM
  A517 nm (DPPH): 0.04 ± 0.00

## Cc1c(C)c2c(c(C)c1O)CCC(C)(C(=O)O)O2 (stereo not drawn) [Trolox, reference compound]
[2]; compound 3 μM
  A517 nm (DPPH): 1.08 ± 0.1
[2]; compound 10 μM
  A517 nm (DPPH): 0.89 ± 0.08
[2]; compound 30 μM
  A517 nm (DPPH): 0.39 ± 0.06
[2]; compound 100 μM
  A517 nm (DPPH): 0.05 ± 0.01
[2]; compound 300 μM
  A517 nm (DPPH): 0.03 ± 0.01

## O=C(O)c1cc(NS(=O)(=O)c2ccc([N+](=O)[O-])cc2)ccc1O [NBSAA, 5-(4-nitrobenzenesulfonyl)aminosalicylic acid]
[2]; compound 100 μM
  A517 nm (DPPH): 0.15 ± 0.05
[3]; compound 300 μM
  Effect on NMDA-induced neuronal death, in words: markedly reduced
[3]; compound 30-300 μM
  Effect on NMDA-induced neuronal death, in words: attenuated NMDA neurotoxicity in a dose-dependent manner
[1]
  Protection against free radical neurotoxicity compared with parent compound: weaker than NBAS

## O=C(Nc1ccc(O)c(C(=O)O)c1)c1ccc([N+](=O)[O-])cc1 [NBAA, 5-(4-nitrobenzoyl)aminosalicylic acid]
[2]; compound 100 μM
  A517 nm (DPPH): 0.42 ± 0.22
[3]; compound 30 μM
  Effect on NMDA-induced neuronal death, in words: significantly attenuated
[3]; compound 30-300 μM
  Effect on NMDA-induced neuronal death, in words: not further increased
[1]
  Protection against free radical neurotoxicity compared with parent compound: weaker than NBAS

## CCOC(=O)c1cc(NCc2ccc([N+](=O)[O-])cc2)ccc1O [NAHE, 5-(4-nitrobenzyl)amino-2-hydroxy ethylbenzoate]
[1]; [6]
  Effect on Fe2+-induced neuronal death, in words: blocked

## Nc1ccc(O)c(C(=O)O)c1 [AS, 5-amino salicylic acid, reference compound]
[3]; compound 10-300 μM, LDH 24 hr later
  Effect on NMDA-induced neuronal death, in words: did not attenuate
[1]; 50 μM Fe2+ continuously 24 hr, compound 10-100 μM
  Effect on Fe2+-induced neuronal death, in words: dose-dependently prevented
[4]; compound 10-300 μM during and post Zn2+ treatment
  Effect on Zn2+-induced neuronal death, in words: not reduced

## O=C(O)c1cc(NCc2c(F)c(F)c(F)c(F)c2F)ccc1O [PBAS, 5-(pentafluorobenzyl)aminosalicylic acid]
[5]
  Effect on BSO-induced neuronal death, in words: blocked
[2]; DPPH, a stable free radical
  Anti-oxidant property against DPPH, in words: reduced levels of DPPH
[2]; compound 1 μM
  A517 nm (DPPH): 1.07 ± 0.07
[2]; compound 3 μM
  A517 nm (DPPH): 1.01 ± 0.07
[2]; compound 10 μM
  A517 nm (DPPH): 0.71 ± 0.09
[2]; compound 30 μM
  A517 nm (DPPH): 0.21 ± 0.04
[2]; compound 100 μM
  A517 nm (DPPH): 0.15 ± 0.02
[2]; compound 300 μM
  A517 nm (DPPH): 0.16 ± 0.01
[3]; compound 300 μM, LDH 24 hr later
  Reduction of NMDA-induced neuronal death: ~65%
[3]; compound 100-1000 μM
  Effect on NMDA-induced neuronal death, in words: reduced NMDA-induced neuronal death in a dose-dependent manner
[3]; compound up to 1 mM
  Effect on NMDA-induced neuronal death, in words: completely blocked
[1]; [7]
  Effect on Fe2+-induced neuronal death, in words: significantly reduced
[1]; 50 μM Fe2+ continuously, compound 3 μM
  Effect on Fe2+-induced neuronal death, in words: near completely blocked
[4]; compound 100-300 μM
  Effect on Zn2+-induced neuronal death, in words: attenuated

## O=C(O)c1cc(NCCc2ccc([N+](=O)[O-])cc2)ccc1O [NPAA, 5-[2-(4-nitrophenyl)-ethyl]aminosalicylic acid]
[2]; compound 100 μM
  A517 nm (DPPH): 0.09 ± 0.01
[3]; compound 300 μM
  Effect on NMDA-induced neuronal death, in words: slightly reduced
[1]; [7]
  Effect on Fe2+-induced neuronal death, in words: complete blockade
[1]
  Protection against free radical neurotoxicity compared with parent compound: more effective than NBAS

## CCOC(=O)c1cc(N(Cc2ccc([N+](=O)[O-])cc2)C(C)=O)ccc1OC(C)=O [NNAAE, 5-(4-nitrobenzyl)-N-acetylamino-2-acetoxy ethylbenzoate]
[1]; [6]
  Effect on Fe2+-induced neuronal death, in words: blocked

## O=C(O)c1cc(NCCCc2ccc([N+](=O)[O-])cc2)ccc1O [NPPAA, 5-[3-(4-nitrophenyl)-n-propyl]aminosalicylic acid]
[2]; compound 100 μM
  A517 nm (DPPH): 0.09 ± 0.02
[3]; compound 300 μM
  Effect on NMDA-induced neuronal death, in words: slightly reduced
[1]; [7]
  Effect on Fe2+-induced neuronal death, in words: complete blockade
[1]
  Protection against free radical neurotoxicity compared with parent compound: more effective than NBAS
